Laboratory results taken from patent publication US20200397796A1, “METHODS OF TREATMENT OF CANCER COMPRISING CHK1 INHIBITORS” (SIERRA ONCOLOGY, INC., priority 2018, published 2020).
Like-named read-outs stand apart in the source and are kept apart here.

What was measured:
[1] = system: CHK1 S296 autophosphorylation; assay: Gemcitabine induced CHK1 S296 autophosphorylation in HT29 tumor xenografts (western blotting); type: in vivo, mouse; settings: oral, 24 hours following gemcitabine 100 mg/kg IV
Procedure: The effect of SRA737 on Gemcitabine induced CHK1 S296 autophosphorylation was assessed as described in Walton et al. (Oncotarget. 2016 Jan. 19; 7(3): 2329-2342), herein incorporated by reference for all it teaches. Briefly, mice bearing HT29 tumor xenografts were administered (i) vehicle control or (ii) gemcitabine (100 mg/kg in saline, IV) or (iii) a combination of SRA737 (12.5, 25, 50 or 100 mg/kg in DTPW, oral) and gemcitabine (100 mg/kg) with SRA737 administered 24 hours following gemcitabine administration (n=3 per time point per treatment). […] Exposure in the tumor was greater than 10-fold higher than in plasma. The circulating plasma concentration at this 24-hour timepoint corresponded to a free drug concentration of approximately 6 nM (2 ng/mL) based on plasma protein binding in mice of 94%.

[2] = Plasma protein binding, rapid equilibrium dialysis, dog; type: in vitro ADME; settings: 10 μM
Procedure: (§1) The PK of SRA737 have been determined in the mouse, rat, dog and monkey following oral and IV administration (Table 3). […] An acceptable terminal elimination t1/2 was also observed in each species. […] The plasma protein binding of SRA737 at 1 and 10 μM was examined in mouse, minipig, monkey and human plasma using ultracentrifugation and in dog plasma (10 μM) using rapid equilibrium dialysis.

[3] = Phase 1 clinical trial, SRA737 in combination with gemcitabine dose escalation; type: in vivo, human; settings: for AUC(0-t) / Cmax / Tmax / half-life: human, plasma, oral, mean
Procedure: A Phase 1 clinical trial was conducted in ‘all corners,’ i.e. no genetic selection was performed, to establish safety, tolerability and pharmacokinetics for SRA737 administered in combination with gemcitabine (“Dose Escalation Phase”). Cohorts consisting initially of a single subject received escalating doses of SRA737, starting in Cohort 1 with 40 mg/day administered orally on days 2, 3, 9, 10, 16, and 17 of each 28-day cycle. Cohorts also received various doses of gemcitabine, starting in Cohort 1 with 300 mg/m^2/day administered IV over 30 minutes on days 1, 8, and 15 of each 28-day cycle.
FIG. 3 presents a summary of dosing amounts for the cohorts tested. In the Dose Escalation Phase, a total of 55 subjects received SRA737 in 13 dose escalation cohorts at doses of 40 to 600 mg SRA737 combined with LDG doses of 50 to 300 mg/m^2.
At this dose, the Cmin (52 ng/mL) exceeded that determined in preclinical models to be effective.
Additional cohorts are monitored escalating the dose of SRA737 until the maximum tolerated dose (MTD) is identified and to optimize combination dosing with gemcitabine. All enrolled subjects who receive at least 1 dose of SRA737 and provide at least 1 evaluable PK concentration or have evaluable data for each specific PDn assessment are evaluable for PK and PDn, respectively. Serious adverse events (SAEs) are collected starting on the date of informed consent. Radiological assessment are performed within 4 weeks from the first dose of SRA737 (or gemcitabine if the SRA737 dose for PK is omitted) and repeated every 6 weeks in Stage 1. In Stage 2, assessments are performed every 8 weeks and in long-term follow-up every 16 weeks. Assessments are performed more frequently, when clinically indicated. Cardiac assessments (echocardiogram [ECHO] and electrocardiogram [ECG]) are be conducted. Optional triplet tumor biopsies in some cases are collected within 28 days prior to receiving the first SRA737 dose. Within 7 days of the first dose of SRA737 (or gemcitabine if the SRA737 dose for PK is omitted), the following assessments are completed: complete physical examination, clinical disease assessment, SAE and concomitant medication, WHO performance status and local laboratory assessment of blood (for hematology, biochemistry, and pregnancy testing). At the single-dose PK run-in on Day −7 to Day −4 visit, concomitant medication, vital signs (including temperature, blood pressure, and pulse), height, weight, body surface area (BSA), and WHO performance status are collected. Blood samples are obtained predose for hematology, biochemistry, pregnancy testing, troponin I or T, as well as for tumor markers and tumor profiling. Adverse events (AEs) are collected starting at the administration of SRA737. Archival tissue is submitted for tumor profiling. PK samples are collected at up to 10 time points over a 48-hour time period on Day −7 to −4 (first dose of SRA737 for PK). The sponsor in some cases reduces the requirement for PK sampling, including modification or elimination of the Day −7 to Day −4 visit once sufficient data to evaluate the single-dose PK of SRA737 have been collected and analyzed. […]

[4] = Plasma protein binding, ultracentrifugation, minipig; type: in vitro ADME; settings: for Percentage Bound / Percentage Free: Minipig plasma
Procedure: as §1

For `N#Cc1cnc(Nc2cc(NCC3CNCCO3)c(C(F)(F)F)cn2)cn1` (stereo not drawn) [SRA737, 5-[[4-[[morpholin-2-yl]methylamino]-5-(trifluoromethyl)-2-pyridyl]amino]pyrazine-2-carbonitrile], the “SRA737 doses at which inhibition of pS296 Chk1 was observed” value [1] was “greater than or equal to 12.5 mg/kg”, the “Percentage Bound” value [2] was 68.8% and the “Percentage Free” value [2] was 31.2%. For the same compound, the Cmin ([3]; 150 mg SRA737) was 52 ng/mL, the “dose limiting toxicities (DLTs)” value ([3]; 40 to 600 mg SRA737 combined with gemcitabine 50 to 300 mg/m^2) was “No protocol-defined dose limiting toxicities” and the AUC(0-t) ([3]; 20 mg, Day −7, n = 8-10, read-out: AUC0-12) was 145 ng·h/mL. The Cmax ([3]; 40 mg, Day 10, n = 4) was 117 ng/mL, the Tmax ([3]; 40 mg, Day 10, n = 4) was 1.8 h and the AUC(0-t) ([3]; 40 mg, Day 10, n = 4, read-out: AUC0-12) was 543 ng·h/mL. For the same compound, the Cmax ([3]; 40 mg, Day −7, n = 6) was 106 ng/mL, the Tmax ([3]; 40 mg, Day −7, n = 6) was 2 h and the AUC(0-t) ([3]; 40 mg, Day −7, n = 6, read-out: AUC0-12) was 486 ng·h/mL. It also gave an AUC(0-t) ([3]; 40 mg, Day −7, n = 6, read-out: AUC0-24) of 637 ng·h/mL, a Cmax ([3]; 80 mg, Day 10, n = 3) of 113 ng/mL and a Tmax ([3]; 80 mg, Day 10, n = 3) of 2 h. For the same compound, the AUC(0-t) ([3]; 80 mg, Day 10, n = 3, read-out: AUC0-12) was 570 ng·h/mL, the Cmax ([3]; 80 mg, Day −7, n = 3) was 146 ng/mL and the Tmax ([3]; 80 mg, Day −7, n = 3) was 2 h. For the same compound, the AUC(0-t) ([3]; 80 mg, Day −7, n = 3, read-out: AUC0-12) was 641 ng·h/mL, the AUC(0-t) ([3]; 80 mg, Day −7, n = 3, read-out: AUC0-24) was 825 ng·h/mL and the Cmax ([3]; 150 mg, Day 10, n = 3) was 331 ng/mL. For the same compound, the Tmax ([3]; 150 mg, Day 10, n = 3) was 1.5 h, the AUC(0-t) ([3]; 150 mg, Day 10, n = 3, read-out: AUC0-12) was 1680 ng·h/mL and the Cmax ([3]; 150 mg, Day −7, n = 4) was 548 ng/mL. For the same compound, the Tmax ([3]; 150 mg, Day −7, n = 4) was 1.8 h, the AUC(0-t) ([3]; 150 mg, Day −7, n = 4, read-out: AUC0-12) was 2630 ng·h/mL and the AUC(0-t) ([3]; 150 mg, Day −7, n = 4, read-out: AUC0-24) was 3550 ng·h/mL. It also gave a Cmax ([3]; 300 mg, Day 10, n = 7) of 1080 ng/mL, a Tmax ([3]; 300 mg, Day 10, n = 7) of 1.7 h and an AUC(0-t) ([3]; 300 mg, Day 10, n = 7, read-out: AUC0-12) of 5140 ng·h/mL. The Cmax ([3]; 300 mg, Day −7, n = 7) was 995 ng/mL, the Tmax ([3]; 300 mg, Day −7, n = 7) was 2.4 h and the AUC(0-t) ([3]; 300 mg, Day −7, n = 7, read-out: AUC0-12) was 4530 ng·h/mL. For the same compound, the AUC(0-t) ([3]; 300 mg, Day −7, n = 7, read-out: AUC0-24) was 5910 ng·h/mL, the Cmax ([3]; 500 mg, Day 10, n = 19-22) was 1720 ng/mL and the Tmax ([3]; 500 mg, Day 10, n = 19-22) was 2.4 h. The AUC(0-t) ([3]; 500 mg, Day 10, n = 19-22, read-out: AUC0-12) was 10200 ng·h/mL, the Cmax ([3]; 500 mg, Day −7, n = 29) was 1430 ng/mL and the Tmax ([3]; 500 mg, Day −7, n = 29) was 2.4 h. For the same compound, the AUC(0-t) ([3]; 500 mg, Day −7, n = 29, read-out: AUC0-12) was 8320 ng·h/mL, the AUC(0-t) ([3]; 500 mg, Day −7, n = 29, read-out: AUC0-24) was 11400 ng·h/mL and the Cmax ([3]; 600 mg, Day 10, n = 4) was 2110 ng/mL. For the same compound, the Tmax ([3]; 600 mg, Day 10, n = 4) was 2.5 h, the AUC(0-t) ([3]; 600 mg, Day 10, n = 4, read-out: AUC0-12) was 11900 ng·h/mL and the Cmax ([3]; 600 mg, Day −7, n = 4) was 2210 ng/mL. The Tmax ([3]; 600 mg, Day −7, n = 4) was 1.8 h, the AUC(0-t) ([3]; 600 mg, Day −7, n = 4, read-out: AUC0-12) was 11800 ng·h/mL and the AUC(0-t) ([3]; 600 mg, Day −7, n = 4, read-out: AUC0-24) was 15100 ng·h/mL. The half-life ([3]; 20 mg, Day −7, n = 8-10) was 4.09 h, the half-life ([3]; 40 mg, Day −7, n = 6) was 11.6 h and the half-life ([3]; 80 mg, Day −7, n = 3) was 11.3 h. The half-life ([3]; 150 mg, Day −7, n = 4) was 12.7 h, the half-life ([3]; 300 mg, Day −7, n = 7) was 11.8 h and the half-life ([3]; 500 mg, Day −7, n = 29) was 11.8 h. For the same compound, the half-life ([3]; 600 mg, Day −7, n = 4) was 11.1 h, the “Percentage Bound” value ([4]; 1 μM) was 85.2% and the “Percentage Free” value ([4]; 1 μM) was 14.9%. For the same compound, the “Percentage Bound” value ([4]; 10 μM) was 75.5%, the “Percentage Free” value ([4]; 10 μM) was 24.5% and the fraction unbound ([4]; plasma, minipig, summary of 1 and 10 μM) was roughly 0.2.
